Source: ChEMBL document CHEMBL3526058, “Investigating the enteroenteric recirculation of apixaban, a factor Xa inhibitor: administration of activated charcoal to bile duct-cannulated rats and dogs receiving an intravenous dose and use of drug transporter knockout rats” (Drug Metab Dispos, 2013)

Tests used:
[1] = Clearance in BCRP-knockout Sprague-Dawley rat at 2 mg/kg, iv; format: ADME, organism-based; design: dose 2 mg/kg, route intravenous; settings: in vivo
[2] = Mean residence time in wild-type bile duct-cannulated Sprague-Dawley rat at 2 mg/kg, iv; format: ADME, organism-based; design: dose 2 mg/kg, route intravenous; settings: in vivo
[3] = Drug recovery in feces of Sprague-Dawley rat at 2 mg/kg, iv measured up to 168 hrs; format: ADME, organism-based; design: dose 2 mg/kg, route intravenous; settings: read-out: Drug recovery
[4] = Drug recovery in bile of bile duct-cannulated Sprague-Dawley rat at 2 mg/kg, iv administered 1 hr post GF-120918 treatment measured up to 48 hrs; format: ADME, organism-based; design: dose 2 mg/kg, route intravenous; settings: with GF-120918, given 1 hr before the compound, read-out: Drug recovery
[5] = Volume of distribution at steady state in bile duct-cannulated beagle dog at 1 mg/kg, iv administered as 5 mins infusion; format: ADME, organism-based, Canis lupus familiaris; design: dose 1 mg/kg, route intravenous; settings: in vivo, read-out: Vdss
[6] = Drug recovery in urine of bile duct-cannulated Sprague-Dawley rat at 2 mg/kg, iv measured up to 24 hrs; format: ADME, organism-based; design: dose 2 mg/kg, route intravenous; settings: read-out: Drug recovery
[7] = Cmax in wild-type bile duct-cannulated Sprague-Dawley rat at 2 mg/kg, iv administered 0.125 hr post GF-120918 treatment; format: ADME, organism-based; design: dose 2 mg/kg, route intravenous; settings: in vivo, with GF-120918
[8] = Drug recovery in feces of beagle dog at 1 mg/kg, iv administered as 5 mins infusion measured up to 72 hrs; format: ADME, organism-based, Canis lupus familiaris; design: dose 1 mg/kg, route intravenous; settings: read-out: Drug recovery
[9] = Drug recovery in feces of bile duct-cannulated Sprague-Dawley rat at 2 mg/kg, iv administered 1 hr post GF-120918 treatment measured up to 48 hrs; format: ADME, organism-based; design: dose 2 mg/kg, route intravenous; settings: with GF-120918, given 1 hr before the compound, read-out: Drug recovery
Rattus norvegicus [10] = assay: Metabolism and biliary clearance at 8 hrs in wild-type bile duct-cannulated Sprague-Dawley rat at 2 mg/kg, iv administered 0.125 hr post GF-120918 treatment; format: ADME, organism-based; design: dose 2 mg/kg, route intravenous; settings: in vivo
Rattus norvegicus [11] = assay: Metabolism and biliary clearance in P-gp-knockout Sprague-Dawley rat at 2 mg/kg, iv; format: ADME, organism-based, Bile; design: dose 2 mg/kg, route intravenous; settings: in vivo
[12] = Mean residence time in wild-type bile duct-cannulated Sprague-Dawley rat at 2 mg/kg, iv administered 0.125 hr post GF-120918 treatment; format: ADME, organism-based; design: dose 2 mg/kg, route intravenous; settings: in vivo, with GF-120918
[13] = Mean residence time in wild-type 30 mins activated charcoal pre-treated bile duct-cannulated Sprague-Dawley rat at 2 mg/kg, iv followed by activated charcoal administration 5 to 180 mins post compound dosing; format: ADME, organism-based; design: dose 2 mg/kg, route intravenous; settings: in vivo
[14] = Mean residence time in bile duct-cannulated beagle dog at 1 mg/kg, iv administered as 5 mins infusion followed by activated charcoal administration 10 to 420 mins post compound dosing; format: ADME, organism-based, Canis lupus familiaris; design: dose 1 mg/kg, route intravenous; settings: in vivo
[15] = Drug recovery in urine of Sprague-Dawley rat at 30 mg/kg, po measured up to 168 hrs; format: ADME, organism-based; design: dose 30 mg/kg, route oral; settings: read-out: Drug recovery
Rattus norvegicus [16] = assay: Metabolism and biliary clearance in wild-type bile duct-cannulated Sprague-Dawley rat at 2 mg/kg, iv; format: ADME, organism-based; design: dose 2 mg/kg, route intravenous; settings: in vivo
[17] = Renal clearance in P-gp-knockout Sprague-Dawley rat at 2 mg/kg, iv; format: ADME, organism-based, Kidney; design: dose 2 mg/kg, route intravenous; settings: in vivo
[18] = Plasma protein binding in beagle dog; format: ADME, cell-free, Canis lupus familiaris; settings: read-out: PPB (converted)
[19] = Drug recovery in urine of bile duct-cannulated P-gp-knockout Sprague-Dawley rat at 2 mg/kg, iv measured up to 24 hrs; format: ADME, organism-based; design: dose 2 mg/kg, route intravenous; settings: read-out: Drug recovery
[20] = Half life in wild-type bile duct-cannulated Sprague-Dawley rat at 2 mg/kg, iv; format: ADME, organism-based; design: dose 2 mg/kg, route intravenous; settings: in vivo
[21] = Half life in bile duct-cannulated beagle dog at 1 mg/kg, iv administered as 5 mins infusion; format: ADME, organism-based, Canis lupus familiaris; design: dose 1 mg/kg, route intravenous; settings: in vivo
[22] = Volume of distribution at steady state in wild-type 30 mins activated charcoal pre-treated bile duct-cannulated Sprague-Dawley rat at 2 mg/kg, iv followed by activated charcoal administration 5 to 180 mins post compound dosing; format: ADME, organism-based; design: dose 2 mg/kg, route intravenous; settings: in vivo, read-out: Vdss
[23] = Drug recovery in urine of bile duct-cannulated Sprague-Dawley rat at 30 mg/kg, po measured up to 48 hrs; format: ADME, organism-based; design: dose 30 mg/kg, route oral; settings: read-out: Drug recovery
Rattus norvegicus [24] = assay: Renal clearance in wild-type bile duct-cannulated Sprague-Dawley rat at 2 mg/kg, iv relative to total clearance; format: ADME, organism-based, Kidney; design: dose 2 mg/kg, route intravenous; settings: in vivo
Rattus norvegicus [25] = assay: Metabolism and biliary clearance in wild-type 30 mins activated charcoal pre-treated bile duct-cannulated Sprague-Dawley rat at 2 mg/kg, iv followed by activated charcoal administration 5 to 180 mins post compound dosing relative to total clearance; format: ADME, organism-based; design: dose 2 mg/kg, route intravenous; settings: in vivo
Rattus norvegicus [26] = assay: Metabolism and biliary clearance at 8 hrs in wild-type bile duct-cannulated Sprague-Dawley rat at 2 mg/kg, iv administered 0.125 hr post GF-120918 treatment relative to total clearance; format: ADME, organism-based; design: dose 2 mg/kg, route intravenous; settings: in vivo
[27] = Drug recovery in bile of bile duct-cannulated BCRP-knockout Sprague-Dawley rat at 2 mg/kg, iv measured up to 24 hrs; format: ADME, organism-based; design: dose 2 mg/kg, route intravenous; settings: read-out: Drug recovery

COc1ccc(-n2nc(C(N)=O)c3c2[14C](=O)N(c2ccc(N4CCCCC4=O)cc2)CC3)cc1
clearance [1]: 15 mL/min/kg | MRT [2]: 0.6 h | dose excreted at 168 h [3]: 41.1% | dose excreted [4]: 14.7% | Vd [5]: 0.2 L/kg | dose excreted at 24 h [6]: 49.5% | Cmax [7]: 1970 ng/mL | dose excreted [8]: 50.8% | dose excreted [9]: 13.8% | CL (Rattus norvegicus [10]): 4.17 mL/min/kg | CL (Rattus norvegicus [11]): 4.83 mL/min/kg | MRT [12]: 1.7 h | MRT [13]: 0.6 h | MRT [14]: 1.9 h | dose excreted at 168 h [15]: 13.4% | CL (Rattus norvegicus [16]): 6.5 mL/min/kg | CL renal [17]: 6.5 mL/min/kg | fraction unbound [18]: 0.08 | dose excreted at 24 h [19]: 44.3% | half-life [20]: 1.2 h | half-life [21]: 2.9 h | Vd [22]: 1.2 L/kg | dose excreted at 48 h [23]: 10.5% | CL (Rattus norvegicus [24]): 51% | CL (Rattus norvegicus [25]): 33% | CL (Rattus norvegicus [26]): 36% | dose excreted at 24 h [27]: 12.7%
